From ChEMBL document CHEMBL1140045, “Crystal structures of rat vitamin D receptor bound to adamantyl vitamin D analogs: structural basis for vitamin D receptor antagonism and partial agonism” (J Med Chem, 2008) come the findings set out here.

A word on the pEC50: it is the negative decadic logarithm of the EC50, by convention in mol/L. As a reminder, the pIC50 is the IC50 on a negative log10 scale, so that one unit is a factor of ten.

Assay [1] deals with T1, Vitamin D3 receptor (Homo sapiens, UniProt P11473).
T1 sequence (P11473 whole entry): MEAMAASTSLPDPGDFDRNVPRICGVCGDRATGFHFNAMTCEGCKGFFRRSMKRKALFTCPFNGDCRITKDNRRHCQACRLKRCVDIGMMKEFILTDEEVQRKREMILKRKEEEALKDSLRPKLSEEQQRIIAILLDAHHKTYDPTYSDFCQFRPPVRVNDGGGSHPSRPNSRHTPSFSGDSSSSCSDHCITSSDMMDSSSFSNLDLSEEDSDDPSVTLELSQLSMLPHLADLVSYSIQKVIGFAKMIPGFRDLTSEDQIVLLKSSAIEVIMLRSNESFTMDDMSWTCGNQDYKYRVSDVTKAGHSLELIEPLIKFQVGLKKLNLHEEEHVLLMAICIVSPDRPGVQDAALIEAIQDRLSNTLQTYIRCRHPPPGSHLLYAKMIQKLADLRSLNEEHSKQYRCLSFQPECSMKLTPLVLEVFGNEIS
The experiment in a line: Agonist activity at VDR assessed as receptor transactivation by transient transcription assay. The class given is functional.

Assay [2] has as its target T1, Vitamin D3 receptor. The experiment in a line: Antagonist activity at VDR expressed in COS7 cells assessed as inhibition of 1,25-Dihydroxyvitamin D3-induced response by transient transcription assay. It is filed as functional, cell-based, COS-7.
In assay [3] the target is T2, Vitamin D3 receptor (Homo sapiens) (UniProt P11473).
T2 sequence (whole entry): T1 sequence (P11473 whole entry)
The experiment in a line: Agonist activity at VDR assessed as receptor transactivation by transient transcription assay relative to 1,25-Dihydroxyvitamin D3. The class given is functional.

For assay [4], the target named is T2, Vitamin D3 receptor (Homo sapiens). The experiment in a line: Binding affinity to VDR relative to 1,25-Dihydroxyvitamin D3.

Molecules are shown by their SMILES. pEC50, pIC50: −log10 of the molar value. Active and inactive are the calls of the source. The rule behind the calls is not given here.

For the molecule `C=C1[C@H](O)CC(=C/C=C2\CCC[C@]3(C)[C@@H]([C@@H](C)/C=C/C[C@@H](O)C45CC6CC(CC(C6)C4)C5)CC[C@@H]23)C[C@H]1O`, the pEC50 on Vitamin D3 receptor [1] was 9.00. Also, the negative logarithm of the IC50 (pIC50) at Vitamin D3 receptor [2] was 8.52. Besides, the Activity in assay [3] amounted to 15%; in assay [4], 75%.

Take `C=C1[C@H](O)CC(=C/C=C2\CCC[C@]3(C)[C@@H]([C@@H](C)/C=C/C[C@@H](O)CC45CC6CC(CC(C6)C4)C5)CC[C@@H]23)C[C@H]1O`: the negative-log EC50 (pEC50) at Vitamin D3 receptor [1] is 7.62. The Activity in assay [3] was 10%. Besides, in assay [4], the outcome was Active.

As for `C=C1[C@H](O)CC(=C/C=C2\CCC[C@]3(C)[C@@H]([C@H](C)/C=C/[C@@H](O)C45CC6CC(CC(C6)C4)C5)CC[C@@H]23)C[C@H]1O`, the negative-log EC50 (pEC50) at Vitamin D3 receptor [1] is 10.70. Also, the values for the Activity in assay [3] and in assay [4] were 74% and 20%, respectively.
